# Results taken from patent US10272055B2, “Therapeutic compounds and methods” (Regents of the University of Minnesota, priority 2014, dated 2019).
# Several values for one entry are separate records, joined by “and”; a condition that tells them apart may be missing. Identical values can stand only once. Entries after “also recorded” stand apart in the source; their conditions may differ.
# Columns and labels:
# MCF7 [1] = assay: ROS production, DCFDA flow cytometry, MCF7; format: cell-based; conditions: MCF7, 20 uM HBB
# Description: (§1) FIG. 33 illustrates that HBB induces reactive oxygen species (ROS) production in MCF7 and MDA-MB-231 lines. Cells in log phase growth in complete media were trypsinized and resuspended in complete media containing 20 uM DCFDA. After incubation at 37° C. for 30 minutes, cells were treated with 20 uM HBB or DMSO for 2.5 hours and analyzed by flow cytometer, monitoring fluorescence at 525 nm. Results are represented as histograms of cell count vs fluorescence intensity.
# MCF7 line = assay: 14,15-EET protection against biguanide growth inhibition, MTT, MCF7; format: cell-based; conditions: MCF-7, exogenous (±)-14,15-EET (1 uM)
# Description: Cells were plated in complete media in the presence of serum (10% FBS) and cultured at 37° C. with 5% CO2 and treated with biguanides for 24 hours in the presence or absence of 1 uM 14,15-EET. Growth was then measured at 24 hour by MTT assay.
# MDA-MB-231 [2] = assay: Cell cycle analysis by flow cytometry, MDA-MB-231; format: cell-based; conditions: MDA-MB-231, HBB 20 uM, 6 hours
# Description: (§2) Cells in log phase growth treated with HBB (20 uM) or DMSO for 6 hours were trypsinized and fixed in 70% ethanol at 4° C. overnight. The cells were washed with cold PBS and resuspended in Nicoletti buffer (50 μg/ml propidium iodide, 0.1% Triton X-100, 0.1% sodium citrate, pH 7.4, and 1 mg/ml RNase). The samples were then analyzed by flow cytometry (BD Biosciences), and data were analyzed using FlowJo software (Tree Star). Representative profile are shown.
# MCF-7 cell line = assay: MTT growth assay, MCF-7 line; format: cell-based
# Description: The growth of the MCF-7 line was measured by MTT assay at 24 hours. Cells were plated in complete media in the presence of serum (10% FBS) and cultured at 37° C. with 5% CO2 and treated with the biguanide or DMSO vehicle. Growth was measured at 24 hours by MTT assay.
# Cells were plated in complete media in the presence of serum (10% FBS) and cultured at 37° C. with 5% CO2 and treated with HBB or DMSO vehicle. Growth was measured at 24 hours by MTT assay.
# MCF7 [3] = assay: Cell cycle analysis by flow cytometry, MCF7; format: cell-based; conditions: MCF7, HBB 20 uM, 6 hours
# Description: as §2
# MDA-MB-231 [4] = assay: MTT growth assay, MDA-MB-231 line; format: cell-based; conditions: MTT assay at 24 hours, 10% FBS
# Description: FIG. 30 illustrates HBB inhibits proliferation of MCF7 and MDA-MB-231 lines. Cells were plated in complete media in the presence of serum (10% FBS) and cultured at 37° C. with 5% CO2 and treated with HBB or DMSO vehicle. Growth was measured at 24 hours by MTT assay. Results were converted to percent growth of control and represented as mean±S.E. (n=8).
# MCF-7 = assay: HBB plus paclitaxel combination, MTT, Chou-Talalay analysis; format: cell-based; conditions: MCF-7, HBB vs paclitaxel = 800:1, 24 hours
# Description: Cells were seeded into 96-well plates at 3,000 cells/well and grown over night. The cells were then treated with different doses of HBB, paclitaxel and combination of the two agents at a constant ratio (HBB vs paclitaxel=800:1). The treatments were conducted for each condition in quadruplicate. […] Combined dose-response curves were fitted to Chou-Talalay lines, and Chou-Talalay combination indices (CIs) were calculated for each fraction affected (Fa) using the equation CI=(D1/Dx1)+(D2/Dx2)+(D1)(D2)/[(Dx1)(Dx2)], where Dx1 and Dx2 are the HBB and paclitaxel doses, respectively, that are required for achieving a particular Fa, and D1 and D2 are the doses of the two agents (combined treatment) required for achieving the same Fa. For each Fa, CI values of 0.8 and 1.2 are cutoffs for synergy and antagonism, respectively (See FIG. 42).
# MDA-MB-231 [5] = assay: ROS production, DCFDA flow cytometry, MDA-MB-231; format: cell-based; conditions: MDA-MB-231, 20 uM HBB
# Description: as §1
# CYP3A4 epoxygenase = CYP3A4 epoxygenase (Homo sapiens, UniProt P08684); assay: CYP3A4 Supersome epoxygenase assay: EET synthesis from arachidonic acid, LC-ESI-MS/MS
# CYP3A4 epoxygenase, sequence (P08684 whole entry): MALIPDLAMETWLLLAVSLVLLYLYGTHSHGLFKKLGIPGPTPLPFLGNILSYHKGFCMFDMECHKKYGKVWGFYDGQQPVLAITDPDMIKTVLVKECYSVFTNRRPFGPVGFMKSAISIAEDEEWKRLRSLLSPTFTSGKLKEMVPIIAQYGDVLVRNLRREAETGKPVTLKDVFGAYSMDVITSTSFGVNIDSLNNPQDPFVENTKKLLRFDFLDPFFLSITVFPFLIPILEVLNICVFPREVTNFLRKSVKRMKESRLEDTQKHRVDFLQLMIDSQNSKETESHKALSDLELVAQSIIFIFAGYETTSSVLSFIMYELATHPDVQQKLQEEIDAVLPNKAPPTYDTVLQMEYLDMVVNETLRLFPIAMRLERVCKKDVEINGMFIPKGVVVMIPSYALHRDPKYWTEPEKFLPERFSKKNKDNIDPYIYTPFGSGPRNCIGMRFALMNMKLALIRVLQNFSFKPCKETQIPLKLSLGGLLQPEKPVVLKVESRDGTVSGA
# Description: Measurements are reported as percentage of control reactions performed with vehicle but no compound. A ^13C-EET recovery standard was used to control for recovery of EETs from extractions. […] EET measurements in these Supersome experiments are expressed as percentage of control reactions. Absolute EET measurements are determined by subtraction of regioisomer values in a baseline reaction lacking NADPH. Measurements were performed in triplicate and values are expressed as the mean±SD.
# After the reaction, EETs were then extracted with 1 mL dichloromethane and reconstituted in methanol and analyzed by LC-ESI-MS/MS.
# MCF-7 xenograft = MCF-7 xenograft in nude mice; format: in vivo; conditions: HBB 4 mg/kg ip daily vs PBS/vehicle
# Description: FIG. 3A. MCF-7 xenograft with 3×10^6 cells in the 2nd mammary fat pad on day 0. HBB (4 mg/kg ip daily) (ν) or PBS (ρ) treatment began on day 1. * indicates P<0.05. FIG. 3B. MDAMB-231 xenograft with 1×10^6 cells in the 2nd mammary fat pad on day 0. HBB (4 mg/kg ip daily) (ν) or PBS (ρ) treatment began on day 1. N=20 mice per arm for each study; error bars are SEM.
# MCF-7 cells were implanted in the mammary fat pad of 4-5 week mice and treatment was initiated when tumor size was ≥15 mm^3 by 2 sequential measurements with randomized assignment to the treatment arms.
# FIG. 44A. Nude mice were inoculated with 3×10^6 MCF-7 cells and treated with vehicle (Δ) HBB at the MTD (4 mg/kg/day ip) (▪). (* indicates P<0.05). Error bars are SEM. […] The dose limiting toxicity was weight loss. At the MTD there was a well-tolerated 4% reduction of weight at 42 days (P<0.0001; data not shown). FIG. 44B. Nude mice were inoculated with 1×10^6MDA-MB-231 cells and treated with HBB at the MTD (4 mg/kg/day ip).
# STAT3 = STAT3 phosphorylation Western blot in MCF7; format: cell-based
# Description: Western blotting analysis was performed (C=control, M=metform and H=HBB).
# Total protein was extracted and analyzed by Western-blotting with GAPDH as an internal control.
smiles,measurement,setting,value
"CCCCCCNC(=N)NC(=N)NCc1ccccc1 [HBB, N1-hexyl-N5-benzyl biguanide]",ROS production relative to DMSO,MCF7 [1],induced significant ROS production
same,"rescue of MCF-7 growth by 14,15-EET in the presence of the biguanide",MCF7 line,partially restores growth; also recorded: partial rescue
same,cell cycle arrest,MDA-MB-231 [2],induces G0/G1 and G2/M cell cycle arrest
same,IC50,"MCF-7 cell line; MTT assay at 24 hours, 10% FBS, read-out: IC50, MCF-7 growth",~20 µM and 20 µM
same,"fold more potent than metformin, MCF-7 growth",MCF-7 cell line; vs metformin,~250 fold
same,cell cycle arrest,MCF7 [3],induces G0/G1 and G2/M cell cycle arrest
same,IC50,MDA-MB-231 [4],22.5 µM
same,"combination index plot, HBB with Taxol",MCF-7,synergy
same,ROS production relative to DMSO,MDA-MB-231 [5],induced significant ROS production
same,IC50,"CYP3A4 epoxygenase; IC50, inhibition of CYP3A4 epoxygenase",110 µM
same,"fold more potent than metformin, CYP3A4 epoxygenase",CYP3A4 epoxygenase; vs metformin,50 fold and ~40 fold
same,"tumor growth, MCF-7 xenograft",MCF-7 xenograft,significant reduction in early engraftment/tumor growth; also recorded: only in the MCF-7 model; also recorded: inhibits the ER+ MCF-7
same,STAT3 phosphorylation relative to control,"STAT3; MCF7, 6 hours, HBB 20 uM, metformin 10 uM",decreased phosphorylation of STAT3
same,"fold more potent than metformin, inhibition of Stat3 phosphorylation",STAT3; vs metformin,~50 fold
